Experimental data reported in ChEMBL document CHEMBL2016439, “Antitumor activity of annonaceous acetogenins in HepS and S180 xenografts bearing mice” (Bioorg Med Chem Lett, 2012).
Active and inactive are the calls of the source. The rule behind the calls is not given here.

How the values were obtained:
CCRF S-180 [1] = assay: Antitumor activity against mouse S180 cells allografted in Kunming mouse assessed as tumor growth inhibition at 15 ug/kg, ip qd administered 24 hrs post challenge for 10 days; type: functional; conditions: CCRF S-180, ip, read-out: GI
[2] = Antitumor activity against mouse HepS cells allografted in Kunming mouse assessed as tumor growth inhibition at 15 ug/kg, ip qd administered 24 hrs post challenge for 10 days; type: functional; conditions: read-out: GI
CCRF S-180 [3] = assay: Antitumor activity against mouse S180 cells allografted in Kunming mouse assessed as tumor growth inhibition at 60 ug/kg, ip qd administered 24 hrs post challenge for 10 days; type: functional; conditions: CCRF S-180, ip, read-out: GI
CCRF S-180 [4] = assay: Antitumor activity against mouse S180 cells allografted in ip dosed Kunming mouse assessed as tumor growth inhibition administered qd 24 hrs post challenge for 10 days; type: functional, organism-based
[5] = Antitumor activity against mouse HepS cells allografted in Kunming mouse assessed as tumor growth inhibition at 60 ug/kg, ip qd administered 24 hrs post challenge for 10 days; type: functional; conditions: read-out: GI
HepS [6] = assay: Antitumor activity against mouse HepS cells allografted in ip dosed Kunming mouse assessed as tumor growth inhibition administered qd 24 hrs post challenge for 10 days; type: functional, organism-based
[7] = Antitumor activity against mouse HepS cells allografted in Kunming mouse assessed as tumor growth inhibition at 40 ug/kg, ip qd administered 24 hrs post challenge for 10 days; type: functional; conditions: read-out: GI
CCRF S-180 [8] = assay: Antitumor activity against mouse S180 cells allografted in Kunming mouse assessed as tumor growth inhibition at 40 ug/kg, ip qd administered 24 hrs post challenge for 10 days; type: functional; conditions: CCRF S-180, ip, read-out: GI
CCRF S-180 [9] = assay: Antitumor activity against mouse S180 cells allografted in Kunming mouse assessed as improved spleen index at 40 ug/kg, ip qd administered 24 hrs post challenge for 10 days; type: functional, organism-based
HepS [10] = assay: Antitumor activity against mouse HepS cells allografted in Kunming mouse assessed as improved spleen index at 40 ug/kg, ip qd administered 24 hrs post challenge for 10 days; type: functional, organism-based
Mus musculus [11] = assay: Toxicity in Kunming mouse allografted with mouse S180 cells assessed as adverse effects at 60 ug/kg, ip qd administered 24 hrs post challenge for 10 days; type: organism-based, CCRF S-180; conditions: in vivo, 0.06 mg/kg
Mus musculus [12] = assay: Toxicity in Kunming mouse allografted with mouse HepS cells assessed as adverse effects at 60 ug/kg, ip qd administered 24 hrs post challenge for 10 days; type: organism-based; conditions: in vivo, 0.06 mg/kg

SMILES	inhibition in vivo at 0.015 mg/kg (CCRF S-180 [1])	inhibition in vivo at 0.015 mg/kg [2]	inhibition in vivo at 0.06 mg/kg (CCRF S-180 [3])	growth inhibition (GI) (CCRF S-180 [4])	inhibition in vivo at 0.06 mg/kg [5]	growth inhibition (GI) (HepS [6])	inhibition in vivo at 0.04 mg/kg [7]	inhibition in vivo at 0.04 mg/kg (CCRF S-180 [8])	Activity (CCRF S-180 [9])	Activity (HepS [10])	Activity (Mus musculus [11])	Activity (Mus musculus [12])
CCCCCCCCCC[C@@H](O)[C@@H]1CC[C@@H]([C@H](O)CC[C@@H](O)[C@@H]2CC[C@@H](CCCCCCCCCC3=C[C@H](C)OC3=O)O2)O1 [SQUAMOSTATIN E]	27.2%	34.2%	51.1%	Dose-dependent effect	51.3%	Dose-dependent effect						
CC(=O)O[C@H]1C(=O)[C@@]2(C)[C@H]([C@H](OC(=O)c3ccccc3)[C@]3(O)C[C@H](OC(=O)[C@H](O)[C@@H](NC(=O)c4ccccc4)c4ccccc4)C(C)=C1C3(C)C)[C@]1(OC(C)=O)CO[C@@H]1C[C@@H]2O [PACLITAXEL]							62.2%	48.9%	Active	Active		
CCCCCCCCCC[C@H](O)[C@H]1CC[C@H]([C@H]2CC[C@H]([C@H](O)CCCCCCCCCC[C@@H](O)CC3=C[C@H](C)OC3=O)O2)O1 [BULLATACIN]											Toxic	Toxic
CCCCCC[C@H](O)CCC[C@H](O)[C@H]1CC[C@H]([C@H](O)CC[C@H](O)[C@@H]2CC[C@@H](CCCCCCCCCC3=C[C@H](C)OC3=O)O2)O1 [SQUAMOSTATIN A]	52.7%	15%	54.2%	Dose-dependent effect	31.2%	Dose-dependent effect						
CCCCCCCCCC[C@@H](O)[C@@H]1CC[C@@H]([C@@H]2CC[C@@H]([C@H](O)CCCCCCCCCC(O)CC3=CC(C)OC3=O)O2)O1 (some centres undefined) [BULLATACIN]	65.8%	63.4%		Dose-dependent effect		Dose-dependent effect						
CCCCCCCCCC[C@H](O)[C@H]1CC[C@H]([C@H]2CC[C@H]([C@H](O)CCCCCCCCCCCCC3=C[C@H](C)OC3=O)O2)O1 [BULLANIN]	42.3%	32.5%	63.9%	Dose-dependent effect	70.9%	Dose-dependent effect						
CCCCCCCCCCCC[C@@H](O)[C@H]1CC[C@H]([C@H](O)CCCCCC(O)CCCCCCC2=C[C@H](C)OC2=O)O1 (some centres undefined)	43.9%	61.5%	48.3%	Dose-dependent effect	67.3%	Dose-dependent effect						
